Data as given in publication PMC7822874, “Chemoprotective antimalarials identified through quantitative high-throughput screening of Plasmodium blood and liver stage parasites” (Scientific Reports, 2021).
Read-outs that look alike come from different tables or passages of the source.

Legend:
[1] = tested on: luciferase-expressing P. berghei liver stage parasites in HepG2 cells; assay: Inhibition of liver-stage development assay (ILSDA), Method 2 (WRAIR, 96-well); assay type: cell-based, Plasmodium berghei; settings: for AC50: Plasmodium berghei
[2] = tested on: Plasmodium falciparum Dd2 asexual blood stage parasites; assay: microbe, parasite or virus in culture; parameters: species or system Plasmodium falciparum Dd2 in human erythrocytes; single determination (one 11-point concentration-response curve); settings: Plasmodium falciparum, DD2, Erythrocyte, 72 h; read-out: AC50
[3] = tested on: P. berghei-ANKA-GFP-LucCON liver stage parasites in HepG2-A16-CD81EGFP cells; assay: P. berghei liver stage Pb-Luc assay, Method 1 (UCSD, 1536-well); assay type: cell-based, Plasmodium berghei; settings: for activity at 1 µM / activity at 3 µM / AC50: Plasmodium berghei; for activity at 1 µM / activity at 3 µM: 48 h
HepG2-A16-CD81EGFP cells = settings: average of 2 wells; for HepG2 viability signal, 3 uM, repeat 2: nominal 3 uM (10 mM stock), 4.5 uM for 15 mM, 3.6 uM for 12 mM, 6 uM for 20 mM stock
in vitro = settings: human; for viability at 48 h, 1 µM / viability at 48 h, 3 µM: HepG2-A16-CD81EGFP cells, uninfected
[4] = nominal 1 uM (10 mM stock), […] for 15 mM, 1.2 uM for 12 mM, 2 uM for 20 mM stock, average of 2 wells, 1536-well plate, repeat 1, read-out: Pb-Luc signal, 1 uM, repeat 1
[5] = nominal 1 uM (10 mM stock), […] for 15 mM, 1.2 uM for 12 mM, 2 uM for 20 mM stock, average of 2 wells, 1536-well plate, repeat 2, read-out: Pb-Luc signal, 1 uM, repeat 2
[6] = nominal 1 uM (10 mM stock), […] for 15 mM, 1.2 uM for 12 mM, 2 uM for 20 mM stock, average of 2 wells, 1536-well plate, repeat 3, read-out: Pb-Luc signal, 1 uM, repeat 3
[7] = nominal 3 uM (10 mM stock), 4.5 uM for 15 mM, 3.6 uM for 12 mM, 6 uM for 20 mM stock, average of 2 wells, 1536-well plate, repeat 1, read-out: Pb-Luc signal, 3 uM, repeat 1
[8] = nominal 3 uM (10 mM stock), 4.5 uM for 15 mM, 3.6 uM for 12 mM, 6 uM for 20 mM stock, average of 2 wells, 1536-well plate, repeat 2, read-out: Pb-Luc signal, 3 uM, repeat 2
[9] = nominal 3 uM (10 mM stock), 4.5 uM for 15 mM, 3.6 uM for 12 mM, 6 uM for 20 mM stock, average of 2 wells, 1536-well plate, repeat 3, read-out: Pb-Luc signal, 3 uM, repeat 3
[10] = Method 1, Hill fit, 50% of maximum activity response, read-out: AC50
[11] = Method 1, log10 of molar AC50 from Hill fit, read-out: Log AC50 (converted)
[12] = nominal 1 uM (10 mM stock), […] for 15 mM, 1.2 uM for 12 mM, 2 uM for 20 mM stock
[13] = Method 2, Decrease = decreasing P. berghei viability with dose, Increase = increasing signal, Inactive = no dose response
[14] = HepG2, Method 2, Hill fit, 50% of maximum activity response, read-out: AC50
[15] = HepG2, Method 2, log10 of molar AC50 from Hill fit, read-out: Log AC50 (converted)
[16] = 1 uM (compounds provided at 10 mM), average of 2 wells on a 1536 well plate, column 11, read-out: Pb-Luc (P. berghei liver stage), % of control, lower concentration, first repeat
[17] = 1 uM (compounds provided at 10 mM), average of 2 wells on a 1536 well plate, column 12, read-out: Pb-Luc (P. berghei liver stage), % of control, lower concentration, second repeat
[18] = 3 uM (compounds provided at 10 mM), average of 2 wells on a 1536 well plate, column 8, read-out: Pb-Luc (P. berghei liver stage), % of control, higher concentration, first repeat
[19] = 3 uM (compounds provided at 10 mM), average of 2 wells on a 1536 well plate, column 9, read-out: Pb-Luc (P. berghei liver stage), % of control, higher concentration, second repeat

Row | Structure (SMILES) | AC50 [2] [nM] | viability at 48 h, 1 µM (in vitro) [%] | viability at 48 h, 3 µM (in vitro) [%] | Max Resp (signal direction of the dose response) [1, 13] | AC50 [1, 14] [nM] | AC50 [1, 15] [nM] | further results
1 | O=C(Nc1ccc2c(N3CCOCC3)ncnc2c1)c1cccc(Br)c1 [NCGC00425561-01] | 4220 | 97.9 | 39.6 |  |  |  | Activity direction (Decrease / Inactive) [1]: Decrease; AC50 ([1]; HepG2): 31600 nM; AC50 ([1]; HepG2, read-out: Log AC50 (converted)): 31600 nM; activity at 1 µM [3, 4]: 70.5%; activity at 1 µM [3, 5]: 72.5%; activity at 1 µM [3, 6]: 53.9%; activity at 3 µM [3, 7]: 30.4%; activity at 3 µM [3, 8]: 40.5%; activity at 3 µM [3, 9]: 12.4%; AC50 [3, 10]: 1410 nM; AC50 [3, 11]: 1410 nM; HepG2 viability signal, 1 uM, repeat 2 (HepG2-A16-CD81EGFP cells; [12]): 93.24%; HepG2 viability signal, 3 uM, repeat 2 (HepG2-A16-CD81EGFP cells): 58.93%
2 | N=c1c2c(n(Cc3ccccc3)c3c1CCC3)CCC2 [MLS000080128-01] | 4220 | 98 | 74 | Inactive |  |  | 
3 | Cc1cc(Nc2ccc(Br)c(C)c2)n2nc(C)nc2n1 [MLS000116638-01] | 1330 |  |  | Decrease | 794 | 794 | activity at 1 µM ([3]; P. berghei liver stage, 1 µM compound treatment (10 mM stocks), replicate 1, normalized, average of 2 wells on a 1536 well plate, read-out: PbLuc 1uM growth rep1): 32%; activity at 1 µM ([3]; P. berghei liver stage, 1 µM compound treatment (10 mM stocks), replicate 2, normalized, average of 2 wells on a 1536 well plate, read-out: PbLuc 1uM growth rep2): 25%; activity at 3 µM ([3]; P. berghei liver stage, 3 µM compound treatment (10 mM stocks), replicate 1, normalized, average of 2 wells on a 1536 well plate, read-out: PbLuc 3uM growth rep1): 9%; activity at 3 µM ([3]; P. berghei liver stage, 3 µM compound treatment (10 mM stocks), replicate 2, normalized, average of 2 wells on a 1536 well plate, read-out: PbLuc 3uM growth rep2): 12%; HepG2 1uM growth rep1 (HepG2-A16-CD81EGFP cells; HepG2, 1 µM compound treatment (10 mM stocks), replicate 1, normalized): 91%; HepG2 1uM growth rep2 (HepG2-A16-CD81EGFP cells; HepG2, 1 µM compound treatment (10 mM stocks), replicate 2, normalized): 87%; HepG2 3uM growth rep1 (HepG2-A16-CD81EGFP cells; HepG2, 3 µM compound treatment (10 mM stocks), replicate 1, normalized): 86%; HepG2 3uM growth rep2 (HepG2-A16-CD81EGFP cells; HepG2, 3 µM compound treatment (10 mM stocks), replicate 2, normalized): 89%
4 | CCc1ccc(C2Sc3ccccc3N=C3C2=C(O)c2ccccc23)cc1 (stereo not shown) [NCGC00108831-01] |  | 103 | 105 | Decrease | 398 | 398 | Max Resp (signal direction of the dose response) ([3]; Method 1, Decrease = decreasing P. berghei viability with dose, Increase = increasing signal, Inactive = no dose response): Decrease; activity at 1 µM [3, 4]: 12.1%; activity at 1 µM [3, 5]: 58.2%; activity at 1 µM [3, 6]: 12.7%; activity at 3 µM [3, 7]: 2.42%; activity at 3 µM [3, 8]: 50.9%; activity at 3 µM [3, 9]: 62.2%; HepG2 viability signal, 1 uM, repeat 2 (HepG2-A16-CD81EGFP cells; [12]): 104.01%; HepG2 viability signal, 3 uM, repeat 2 (HepG2-A16-CD81EGFP cells): 104.74%
5 | COc1ccc(-c2cc(C(F)(F)F)nc(SCCC(=O)Nc3cc(C)ccc3O)n2)cc1 [NCGC00101472-01] | 1880 |  |  | Inactive |  |  | activity at 1 µM [3, 4]: 38.3%; activity at 1 µM [3, 5]: 70%; activity at 1 µM [3, 6]: 108%; activity at 3 µM [3, 7]: 2.83%; activity at 3 µM [3, 8]: 48.6%; activity at 3 µM [3, 9]: 51.1%; AC50 [3, 10]: 2000 nM; AC50 [3, 11]: 2000 nM; HepG2 viability signal, 1 uM, repeat 1 (HepG2-A16-CD81EGFP cells; nominal 1 uM (10 mM stock), […] for 15 mM, 1.2 uM for 12 mM, 2 uM for 20 mM stock, repeat 1): 98.35%; HepG2 viability signal, 1 uM, repeat 2 (HepG2-A16-CD81EGFP cells; [12]): 103.33%; HepG2 viability signal, 3 uM, repeat 2 (HepG2-A16-CD81EGFP cells): 103.42%
6 | CC(C)(C)C1CCc2[nH]c3ccccc3c(=O)c2C1 (stereo not shown) [MLS000109039-01] | 1880 | 89 | 88 | Decrease | 282 | 282 | 
7 | O=C(Nc1ccc(N2CCN(c3ncccc3C(F)(F)F)CC2)nc1)c1cccs1 [MLS000862045-01] |  | 105 | 95 | Decrease | 447 | 447 | 
8 | Cc1ccc(C(=O)Nc2nc(-c3ccccn3)cs2)cc1S(=O)(=O)N1CCOCC1 [MLS002157637-01] |  | 92 | 55 | Inactive |  |  | 
9 | Cc1ccc(C(=O)Nc2nc(-c3ccccn3)cs2)cc1[S+](=O)([O-])N1CCOCC1.O=C(O)C(F)(F)F [NCGC00345210-01] |  | 73 | 31 | Inactive |  |  | 
10 | Cc1ccc(Nc2nc(NCCO)c3ccccc3n2)cc1C [NCGC00273600-02] |  | 96 | 82 | Decrease | 562 | 562 | 
11 | N=c1c2ccccc2nnn1-c1ccc(C(F)(F)F)cc1 [MLS000707013-01] | 3760 | 91 | 101 | Decrease | 708 | 708 | activity at 1 µM [3, 16]: 23%; activity at 1 µM [3, 17]: 19%; activity at 3 µM [3, 18]: 12%; activity at 3 µM [3, 19]: 10%
12 | CCn1cc(C(=O)O)c(=O)c2cnc(N3CCN(/C(S)=N/c4ccccc4)CC3)nc21 [MLS000777921-01] | 3760 | 113 | 102 | Decrease | 2000 | 2000 | activity at 1 µM [3, 16]: 25%; activity at 1 µM [3, 17]: 24%; activity at 3 µM [3, 18]: 3.25%; activity at 3 µM [3, 19]: 2.6%
13 | Cc1ccc(CSCc2ccc(C(=O)NC3CC3)o2)cc1 [MLS001031023-01] | 2660 | 93 | 88 | Decrease | 224 | 224 | 
14 | O=C1c2ccccc2-n2c1nc1ccccc1c2=O [NCGC00160337] |  |  |  |  |  |  | Max Resp (signal direction of the dose response) [1]: Increase; viability (in vitro): 87%
15 | CCOC(=O)c1c[nH]c2c3c(ccc2c1=O)CCCC3 [MLS000085191-01] |  | 98 | 106 | Increase |  |  | 
16 | Cc1ccc2c(c1)[nH]c1c(N3CCN(Cc4ccccc4)CC3)ncnc12 [MLS000041320-01] |  | 82 | 88 | Inactive |  |  | activity at 1 µM [3, 16]: 23%; activity at 1 µM [3, 17]: 17%; activity at 3 µM [3, 18]: 5.3%; activity at 3 µM [3, 19]: 4%
17 | O=C(NC1CC1)c1ccc(CSCc2ccccc2Cl)o1 [MLS001030935-01] |  | 111 | 100 | Decrease | 200 | 200 | activity at 1 µM [3, 16]: 16%; activity at 1 µM [3, 17]: 12%; activity at 3 µM [3, 18]: 1%; activity at 3 µM [3, 19]: 9%
18 | O=C(CCc1ccccc1)NC(c1cccs1)c1cc(Cl)c2cccnc2c1O (stereo not shown) [MLS000703748-01] |  | 113 | 51 | Inactive |  |  | 
19 | COc1ccc(C2=Nn3c([n+](C)c4ccccc43)SC2)cc1 [MLS000717833-01] |  | 83 | 63 | Decrease | 11200 | 11200 | 
